Assays:
FLAG-fused VprΔC = target: T1, FLAG-fused VprΔC (Human immunodeficiency virus type 1 group M subtype B, UniProt P12520); test: In vitro direct binding of Vpr and compound; affinity precipitation with compound-immobilized Sepharose beads; parameters: species or system HIV; conditions: FIG. 2 (2) lane 5
T1 construct: made in house; host or cells: TNT-coupled wheat germ extract in vitro transcription/translation (Promega), with 35S-methionine
Source text: The DNA fragment of interest (300 bp) was recovered from PCR reaction products by agarose gel electrophoresis, and then cloned into the pGEM-T vector (Promega). This fragment was base analyzed on both plus and minus strands and was verified to correspond to the intended fused Vpr. The vector into which the Vpr gene fused to FLAG has been incorporated is hereinafter referred to as pGEM-T/Vpr-wt. Furthermore, using this pGEM-T/Vpr-wt as a template, a second Vpr gene fused to FLAG in which a C-terminal region of Vpr (a.a. 73–96) was deleted was obtained by PCR utilizing primers shown below (SEQ ID Nos:4 and 5).
This fused gene was cloned into the pGEM-T vector as described above, and the resulting vector is hereinafter referred to as pGEM-T/VprΔC. […]
(§1) Preparation of FLAG-fused Vpr was performed by transcription and translation from the T7 promoter employing the TNT-coupled wheat germ extract in vitro transcription/translation system (wheat germ extract transcription/translation system) (Promega). […] Whether these products were Vpr was analyzed by carrying out western blotting according to typical procedures employing an anti-FLAG antibody after samples resulting from transcription and translation in the absence of the radiolabel were denatured with SDS (sodium dodecylsulfate). […]

FLAG-fused Vpr = target: T2, FLAG-fused Vpr (Human immunodeficiency virus type 1 group M subtype B, UniProt P12520); test: as above; parameters: species or system HIV
T2 construct: made in house; host or cells: TNT-coupled wheat germ extract in vitro transcription/translation (Promega), with 35S-methionine
T2 sequence (P12520 whole entry, the tested form may be a part): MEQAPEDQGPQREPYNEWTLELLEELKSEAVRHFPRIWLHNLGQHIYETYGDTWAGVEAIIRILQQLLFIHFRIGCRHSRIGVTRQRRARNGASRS
Source text: A Vpr gene fused to N-terminal FLAG (SEQ ID NO:1) was obtained by PCR (polymerase chain reaction) using as a template pBT-1 (purchased from ATCC) into which the HIV genome without env had been incorporated. Primers utilized were synthetic DNAs having the following sequences (SEQ ID NOs:1 and 2). N-terminal FLAG: Asp Tyr Lys Asp Asp Asp Asp Lys (SEQ ID NO:1);
The DNA fragment of interest (300 bp) was recovered from PCR reaction products by agarose gel electrophoresis, and then cloned into the pGEM-T vector (Promega). This fragment was base analyzed on both plus and minus strands and was verified to correspond to the intended fused Vpr. The vector into which the Vpr gene fused to FLAG has been incorporated is hereinafter referred to as pGEM-T/Vpr-wt. […]
as §1

HeLa = test: In vitro functional antagonism between flavonoid (quercetin) and compound; microscopic observation of cell morphologies; format: cell-based
Experimental: Three types of cells were employed (HeLa, ECV304, and HBL-100, purchased from ATCC), and for each type, 1×10^5 cells were seeded in a 10 cm dish and cultured in D-MEM/F-12 medium (Gibco BRL) for 18–20 hours. On the next day, the medium was changed to the same medium containing 1.0 μM quercetin (Sigma; hereinafter abbreviated to QCT), followed by culturing for an additional 2 days. The compound A was then added at a concentration of 600 nM, and 72 hours later observations under a microscope were made of cell morphologies.

Vpr = Vpr (Human immunodeficiency virus type 1 group M subtype B, UniProt P12520); conditions: literature, Shimura M. et al. 1999; cited from earlier work
Chain of Vpr (P12520 whole entry): as the sequence (P12520 whole entry, the tested form may be a part) above

T1 sequence (P12520 1-72, stated change not applied): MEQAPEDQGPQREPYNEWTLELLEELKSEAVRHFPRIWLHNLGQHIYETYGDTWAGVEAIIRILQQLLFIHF

Structure (SMILES)	binding of radiolabeled FLAG-fused VprΔC (C-terminal a.a. 73–96 deleted) to compound-immobilized beads (FLAG-fused VprΔC)	binding of radiolabeled FLAG-fused Vpr to compound-immobilized beads (FLAG-fused Vpr; affinity precipitation, FIG. 2 (2) lane 3)	region of Vpr to which the compound binds (FLAG-fused Vpr; concluded from binding to Vpr and no binding to VprΔC)	effects of the compound after pre-treatment with quercetin (HeLa; HeLa cells, 1.0 μM quercetin for 48 hours, then compound 600 nM for 72 hours)	cell cycle state, cell morphology under a microscope (HeLa; HeLa cells, compound 600 nM alone, 72 hours, compared with the control group)	number of multinucleate cells having plural nuclei within single cells (HeLa; compound 600 nM alone, 72 hours, compared with the control group)	effect on Vpr functions (Vpr)
COc1ccc(S(=O)(=O)Nc2c(/C=C/c3ccncc3)cccc2OCCN)cc1 [compound B, (E)-4-[2-{3-(2-aminoethyloxy)-2-[N-(4-methoxybenzenesulfonyl)amino]phenyl}ethenyl]pyridine]	not observed to bind	observed to bind	binds directly to the C-terminal region	disappear almost completely	the cell cycle is arrested at the G2/M period	apparently increased	
O=c1c(O)c(-c2ccc(O)c(O)c2)oc2cc(O)cc(O)c12 [quercetin]							inhibits Vpr functions

From patent US7148244B2, “Medicines in controlling Vpr function” (Nippon Shinyaku Co. Ltd., priority 2001, dated 2006)
